Measurements as given in US20190365785A1, “INHIBITION OF UNFOLDED PROTEIN RESPONSE FOR SUPPRESSING OR PREVENTING ALLERGIC REACTION TO FOOD” (Children's Hospital Medical Center, priority 2017, published 2019).

How the values were obtained:
[1] = system: BALB/c mice; assay: UPR inhibitors in drinking water or oral in mouse model of food (egg) allergy; type: in vivo; settings: for intestinal UPR-related gene expression (except for BiP and ATF6) / intestinal pro-Th2 cytokine expression: 500 mg/kg/day in drinking water, FIG. 15A-15E; for hypothermia / mouse mast cell protease 1 (MMCP1) response / small intestinal UPR-related gene expression (except ATF6) / small intestinal pro-Th2 cytokine gene expression: mice induced to develop food allergy, 500 mg/kg in drinking water, FIG. 14
Procedure: BALB/c mice were induced to develop food allergy and were then treated with 500 mg/kg doses of metformin or TUDCA in drinking water.
BALB/c mice with established egg allergy were provided with drinking water that contained 500 mg/kg/day of metformin or TUDCA, or with ordinary drinking water. Both metformin and TUDCA suppressed intestinal UPR-related gene expression (except for BiP and ATF6) and pro-Th2 cytokine expression. Note the large increases in intestinal UPR-associated and pro-Th2 gene expression compared to naïve mice, and the partial suppression of UPR-associated and pro-Th2 genes by metformin and TUDCA (FIG. 15E).
BALB/c mice with established egg allergy were administered egg yolk plasma with or without 1 g/kg/day or 2 g/kg/day of metformin. Pro-Th2 cytokine and UPR-related gene expression was inhibited in skin (FIG. 16A) and lung (FIG. 16B).

[2] = system: CACO-2 cells; assay: Pro-Th2 cytokine expression by CACO-2 cells cultured with EYP, HC, MCT or sodium palmitate, with or without UPR inhibitors; type: cell-based, human
Procedure: To evaluate whether the UPR induces pro-Th2 gene expression in cultured human intestinal epithelial cells, we evaluated the abilities of three UPR inhibitors to inhibit the ability of egg yolk plasma (EYP), heavy cream (HC), medium chain triglycerides (MCT), or sodium palmitate to induce pro-Th2 cytokine expression by CACO-2 cells. CACO-2 cells were cultured for 24 hours with medium alone, EW, negative control, EYP, HC, MCT, or sodium palmitate (positive control for UPR induction), with or without the UPR inhibitors metformin, TUDCA, or 4-PBA. mRNA was prepared, reverse-transcribed, and quantitated by real time PCR. […] CACO-2 cells were obtained from the American Type Culture Collection (ATCC), catalog number HTB-37. These cells were grown in ATCC-formulated Eagle's Minimum Essential Medium (EMEM) (Cat. No. 30-2003), supplemented with fetal bovine serum (FBS) to a final concentration of 20% (ATCC® Cat. No. 30-2020) and Gibco antibiotic-antimycotic mixture. The cells were cultured in 6-well, 12-well, or 24-well culture plates to approximately 85%-90% confluency. On the day of experiment, EMEM medium was prepared with the appropriate concentrations of stimulants and/or inhibitors and added to the cells. Following the period of culture (usually 6 or 24 hours), the cells were washed and lysed, and total RNA was purified using PureLink™ RNA Mini Kit (Thermo Fisher Cat. No. 12183018A). The purified total RNA was used to generate cDNA using a High-Capacity cDNA Reverse Transcription Kit (Applied Biosystems, Cat. No. 4368814). Gene expression was analyzed using the qPCR method with a BioRad My iQ™ Detection system, and compared to the expression of the GAPDH housekeeping gene.

[3] = system: human intestinal organoids (HIO); assay: UPR-associated and pro-Th2 cytokine gene expression in human intestinal organoids injected with palmitate ± metformin or TUDCA; type: cell-based; settings: lumen injection, FIG. 6A-6B
Procedure: HIO were produced from human peripheral blood pluripotent stem cells having a single UPR-associated gene deleted by CRISPR/Cas9. Applicant injected the lumens of HIO with culture medium or palmitate to induce increased UPR-associated and pro-Th2 cytokine gene expression, and further injected the HIO lumens with metformin or TUDCA. mRNA levels for the UPR-associated and pro-Th2 cytokine genes were determined by real-time PCR.

[4] = system: CACO-2 cells; assay: Pro-Th2 cytokine protein production by CACO-2 cells (immunoprecipitation and Western blot); type: cell-based, human; settings: 24 hr, Western blot, FIG. 4
Procedure: CACO-2 cells were cultured for 24 hr±palmitate or EYP. Cell lysates were prepared and normalized by protein concentration and direct α/β-tubulin Western blot. Lysates were serially incubated with anti-IL-25+protein G beads, anti-IL-33+protein G beads, and anti-TSLP+protein G beads. Laemmli buffer eluates from beads were analyzed by electrophoresis on a 4-20% polyacrylamide gel, blotted onto a PVDF membrane, and visualized by incubation with biotinylated anti-IL-25, anti-IL-33, or anti-TSLP mAb, followed by streptavidin-peroxidase and ECL WB substrate.

[5] = system: CACO-2 cells; assay: UPR-related and pro-Th2 cytokine gene expression in CACO-2 cells cultured with lipid-free peanut extract ± metformin; type: cell-based, human; settings: CACO-2 cells with peanut extract, treated with metformin
Procedure: Because the UPR can be induced by multiple mechanisms that are associated with cell stress, including mechanisms that are not associated with lipids, Applicant investigated the ability of aqueous extracts of allergenic foods other than eggs and milk to induce UPR-associated and pro-Th2 cytokine gene expression, and the ability of metformin to suppress these responses. CACO-2 cells were cultured for 24 hours with medium alone or with a lipid-free peanut extract±metformin. mRNA was reverse-transcribed and gene expression was determined by real time PCR.
CACO-2 cells were obtained from the American Type Culture Collection (ATCC), catalog number HTB-37. These cells were grown in ATCC-formulated Eagle's Minimum Essential Medium (EMEM) (Cat. No. 30-2003), supplemented with fetal bovine serum (FBS) to a final concentration of 20% (ATCC® Cat. No. 30-2020) and Gibco antibiotic-antimycotic mixture. The cells were cultured in 6-well, 12-well, or 24-well culture plates to approximately 85%-90% confluency.
On the day of experiment, EMEM medium was prepared with the appropriate concentrations of stimulants and/or inhibitors and added to the cells. […] Gene expression was analyzed using the qPCR method with a BioRad My iQ™ Detection system, and compared to the expression of the GAPDH housekeeping gene.

[6] = system: CACO-2 cells; assay: CACO-2 cells cultured with egg yolk plasma or peanut extract, with or without lipase inhibitor Orlistat; type: cell-based, human; settings: 24 hours, FIG. 3
Procedure: CACO-2 cells were cultured for 24 hours with medium alone, egg yolk plasma, or peanut extract, with or without the lipase inhibitor Orlistat. mRNA was extracted and reverse transcribed, after which UPR-associated gene expression and pro-Th2 cytokine gene expression were determined by real time PCR. […] CACO-2 cells were obtained from the American Type Culture Collection (ATCC), catalog number HTB-37. These cells were grown in ATCC-formulated Eagle's Minimum Essential Medium (EMEM) (Cat. No. 30-2003), supplemented with fetal bovine serum (FBS) to a final concentration of 20% (ATCC® Cat. No. 30-2020) and Gibco antibiotic-antimycotic mixture. The cells were cultured in 6-well, 12-well, or 24-well culture plates to approximately 85%-90% confluency. On the day of experiment, EMEM medium was prepared with the appropriate concentrations of stimulants and/or inhibitors and added to the cells. Following the period of culture (usually 6 or 24 hours), the cells were washed and lysed, and total RNA was purified using PureLink™ RNA Mini Kit (Thermo Fisher Cat. No. 12183018A). The purified total RNA was used to generate cDNA using a High-Capacity cDNA Reverse Transcription Kit (Applied Biosystems, Cat. No. 4368814). Gene expression was analyzed using the qPCR method with a BioRad My iQ™ Detection system, and compared to the expression of the GAPDH housekeeping gene.

[7] = summary statement of Applicant's results
[8] = 24 hours, real time PCR, FIG. 1

O=C(O)CCCc1ccccc1 [4-PBA, 4-phenylbutyrate]
established food allergy [1, 7]: suppresses | suppression of EYP-, HC-, MCT- and palmitate-induced expression of the pro-Th2 cytokines [2, 8]: strong suppression

CCCCCCCCCCCCCCCC(=O)[O-].[Na+] [sodium palmitate]
UPR-dependent induction of pro-Th2 cytokine genes [3]: stimulated | pro-Th2 cytokine protein expression (IL-25, IL-33, TSLP) [4]: increase | induction of expression of the pro-Th2 cytokines ([2]; 24 hours, stimulant alone, real time PCR, FIG. 1): induced increased expression

C[C@H](CCC(=O)NCCS(=O)(=O)O)[C@H]1CC[C@H]2[C@@H]3[C@@H](O)C[C@@H]4C[C@H](O)CC[C@]4(C)[C@H]3CC[C@]12C [TUDCA, tauroursodeoxycholic acid]
palmitate-induced UPR-associated and pro-Th2 cytokine gene expression [3]: suppressed | intestinal UPR-related gene expression (except for BiP and ATF6) ([1]; established egg allergy): suppressed | intestinal pro-Th2 cytokine expression ([1]; established egg allergy): suppressed | hypothermia [1]: suppression | mouse mast cell protease 1 (MMCP1) response [1]: suppression | small intestinal UPR-related gene expression (except ATF6) [1]: suppression | small intestinal pro-Th2 cytokine gene expression [1]: suppression | established food allergy [1, 7]: suppresses | suppression of EYP-, HC-, MCT- and palmitate-induced expression of the pro-Th2 cytokines [2, 8]: strong suppression

CN(C)C(=N)N=C(N)N [metformin]
palmitate-induced UPR-associated and pro-Th2 cytokine gene expression [3]: suppressed | expression of UPR-related genes ([5]; FIG. 2 A): reduced expression | expression of pro-Th2 cytokine genes ([5]; FIG. 2 B): reduced expression | intestinal UPR-related gene expression (except for BiP and ATF6) ([1]; established egg allergy): suppressed | intestinal pro-Th2 cytokine expression ([1]; established egg allergy): suppressed | Pro-Th2 cytokine and UPR-related gene expression in skin ([1]; established egg allergy, egg yolk plasma, 1 g/kg/day or 2 g/kg/day oral, FIG. 16A): inhibited | Pro-Th2 cytokine and UPR-related gene expression in lung ([1]; established egg allergy, egg yolk plasma, 1 g/kg/day or 2 g/kg/day oral, FIG. 16B): inhibited | hypothermia [1]: suppression | mouse mast cell protease 1 (MMCP1) response [1]: suppression | small intestinal UPR-related gene expression (except ATF6) [1]: suppression | small intestinal pro-Th2 cytokine gene expression [1]: suppression | development of food allergy [1, 7]: suppresses | established food allergy [1, 7]: suppresses | suppression of EYP-, HC-, MCT- and palmitate-induced expression of the pro-Th2 cytokines [2, 8]: strong suppression | pro-Th2 cytokine gene induction by egg and milk lipid fractions and aqueous extracts of peanuts, walnut, codfish ([2]; summary, every allergen tested): suppresses pro-Th2 cytokine gene induction in every case

CCCCCCCCCCC[C@@H](C[C@@H]1OC(=O)[C@H]1CCCCCC)OC(=O)[C@H](CC(C)C)NC=O [Orlistat]
UPR-related or pro-Th2 gene expression by peanut extract [6]: no effect | egg yolk plasma-induced UPR-associated and pro-Th2 cytokine gene expression [6]: suppressed
